Assay results published in the C3SDB collision cross section collection.

Columns and labels:
[1] = instrument: DT, single field, calibrated with Agilent tune mix (Agilent)
[2] = instrument: DT, stepped-field

## CCCCCCCCCCCCCCCCC(=O)N[C@@H](CO)[C@H](O)CCCCCCCCCCCCCCC [Cer(35:0)]
[1]; [M+H]+
  collision cross section (N2): 258.6 Å²

## CCCCCCCCCCCCC=CC[C@@H](O)[C@H](CO)NC(=O)CCCCCCCCCCCCCCCC [Cer(35:1)]
[1]; [M+H]+
  collision cross section (N2): 256.3 Å²

## CCCCCCCCCCCCC=CC[C@@H](O)[C@H](CO)NC(=O)CC=CCCCCCCCCCCCCCC [Cer(36:2)]
[1]; [M+H]+
  collision cross section (N2): 255.4 Å²

## CCCCCCCCCCCCC=CC[C@@H](O)[C@H](CO)NC(=O)CCCCCCCCCCCCCCCCCCC [Cer(38:1)]
[1]; [M+HCOO]-
  collision cross section (N2): 263.4 Å²
[1]; [M+H]+
  collision cross section (N2): 267.3 Å²
[1]; [M+Na]+
  collision cross section (N2): 273.1 Å²

## CCCCCCCCCCCCC=CC[C@@H](O)[C@H](CO)NC(=O)CCCCCCCCCCCCCCCCCCCC [Cer(39:1)]
[1]; [M+H]+
  collision cross section (N2): 269 Å²

## CCCCCCCCCCCCC=CC[C@@H](O)[C@H](CO)NC(=O)CCCCCCCCCCCCCCCCCCCCC [Cer(40:1)]
[1]; [M+HCOO]-
  collision cross section (N2): 269.4 Å²
[1]; [M+H]+
  collision cross section (N2): 272.3 Å²

## CCCCCCCCCCCCC=CC[C@@H](O)[C@H](CO)NC(=O)CCCCCCCCCCCCCCCCCCCCCC [Cer(41:1)]
[1]; [M+H]+
  collision cross section (N2): 275.6 Å²
[1]; [M+Na]+
  collision cross section (N2): 281.6 Å²

## CCCCCCCCCCCCC=CC[C@@H](O)[C@H](CO)NC(=O)CCCCCCCCCCCCCCCCCCCCCCC [Cer(42:1)]
[1]; [M+H]+
  collision cross section (N2): 279.3 Å²
[1]; [M-H]-
  collision cross section (N2): 267.7 Å²

## CCCCCCCCCCCCC=CC[C@@H](O)[C@H](CO)NC(=O)CC=CCCCCCCCCCCCCCCCCCCCC [Cer(42:2)]
[1]; [M+HCOO]-
  collision cross section (N2): 274.4 Å²
[1]; [M+Na]+
  collision cross section (N2): 278.8 Å²
[1]; [M-H]-
  collision cross section (N2): 266.1 Å²

## CCCCCCCCCCCCC=CC[C@@H](O)[C@H](CO[C@@H]1O[C@H](CO)[C@@H](O)C(O)C1O)NC(=O)CCCCCCCCCCCCCCCCCCCCCCCCC (stereo partly specified) [GlcCer(44:1)]
[1]; [M+H]+
  collision cross section (N2): 307.2 Å²
[1]; [M+Na]+
  collision cross section (N2): 308.7 Å²

## CCCCCC/C=C\CCCCCCCCC(=O)OC[C@@H](O)COP(=O)([O-])OCC[N+](C)(C)C [LPC(17:1)]
[1]; [M+H]+
  collision cross section (N2): 228.4 Å²

## CCCCCCCCCCCCCCCCCC(=O)OC[C@@H](O)COP(=O)(O)OC[C@H](N)C(=O)O [LPS(18:0)]
[1]; [M+H]+
  collision cross section (N2): 228.3 Å²
[1]; [M+Na]+
  collision cross section (N2): 232.1 Å²

## CCCCCC/C=C\CCCCCCCC/C=C\OC[C@H](COP(=O)([O-])OCC[N+](C)(C)C)OC(=O)CCCCCCC/C=C\CCCCCC [PC(p34:2)]
[1]; [M+H]+
  collision cross section (N2): 283.3 Å²

## CCCCC/C=C\C/C=C\CCCCCCCC(=O)O[C@H](COCCCCCCCCCCCCCCCCCCCC)COP(=O)(O)OCCN [PE(o38:02)]
[2]; [M+2Na-H]+
  collision cross section (N2): 289.33 Å²

## CCCCC/C=C\C/C=C\C/C=C\CCCCC(=O)O[C@H](COCCCCCCCCCCCCCCCCCCCC)COP(=O)(O)OCCN [PE(o38:03)]
[2]; [M+2Na-H]+
  collision cross section (N2): 287.42 Å²
[2]; [M+Na]+
  collision cross section (N2): 283.24 Å²

## CCCCC/C=C\C/C=C\C/C=C\C/C=C\CCCC(=O)O[C@H](COCCCCCCCCCCCCCCCCCC)COP(=O)(O)OCCN [PE(o38:04)]
[2]; [M+2Na-H]+
  collision cross section (N2): 284.68 Å²

## CCCCCCCCCC/C=C\CCCCCCCCCC(=O)O[C@H](COC(=O)CCCCCCCCCCC)COP(=O)(O)OC[C@H](N)C(=O)O [PS(34:01)]
[2]; [M+2Na-H]+
  collision cross section (N2): 280.81 Å²

## CCCCCCCCCCCCCCCCCC(=O)OC[C@H](COP(=O)(O)OC[C@H](N)C(=O)O)OC(=O)CCCCCCCCCCCCCCCCC [PS(36:00)]
[2]; [M-H]-
  collision cross section (N2): 284.03 Å²

## CCCCCCCCCC/C=C\CCCCCCCCCC(=O)O[C@H](COC(=O)CCCCCCCCCCCCCC)COP(=O)(O)OC[C@H](N)C(=O)O [PS(37:01)]
[2]; [M+2Na-H]+
  collision cross section (N2): 293.47 Å²

## CCCCC/C=C\C/C=C\CCCCCCCCCCCC(=O)O[C@H](COC(=O)CCCCCCCCCCCCCC)COP(=O)(O)OC[C@H](N)C(=O)O [PS(37:02)]
[2]; [M+2Na-H]+
  collision cross section (N2): 289.29 Å²

## CCCCC/C=C\C/C=C\C/C=C\CCCCCCC(=O)O[C@H](COC(=O)CCCCCCC/C=C\CCCCCCC)COP(=O)(O)OC[C@H](N)C(=O)O [PS(37:04)]
[2]; [M+2Na-H]+
  collision cross section (N2): 285.85 Å²

## CCCCC/C=C\C/C=C\C/C=C\CCCCCCC(=O)O[C@H](COC(=O)CCCCCCC/C=C\CCCCCCCC)COP(=O)(O)OC[C@H](N)C(=O)O [PS(38:04)]
[2]; [M+2Na-H]+
  collision cross section (N2): 288.75 Å²
[2]; [M+H]+
  collision cross section (N2): 284.44 Å²
[2]; [M+K]+
  collision cross section (N2): 289.37 Å²
[2]; [M-H]-
  collision cross section (N2): 285.11 Å²

## CCCCC/C=C\C/C=C\C/C=C\CCCCCCC(=O)O[C@H](COC(=O)CCCCCCC/C=C\C/C=C\CCCCC)COP(=O)(O)OC[C@H](N)C(=O)O [PS(38:05)]
[2]; [M+2Na-H]+
  collision cross section (N2): 285.68 Å²
[2]; [M+H]+
  collision cross section (N2): 281.67 Å²
[2]; [M+K]+
  collision cross section (N2): 286.6 Å²
[2]; [M-H]-
  collision cross section (N2): 283.69 Å²

## CC/C=C\C/C=C\C/C=C\C/C=C\C/C=C\C/C=C\CCC(=O)OC[C@H](COP(=O)(O)OC[C@H](N)C(=O)O)OC(=O)CCCCCCCCCCCCCCCCCC [PS(41:06)]
[2]; [M+2Na-H]+
  collision cross section (N2): 296.18 Å²

## CCCCC/C=C\C/C=C\C/C=C\C/C=C\CCCCCC(=O)O[C@H](COC(=O)CCCCCCCCC/C=C\C/C=C\CCCCC)COP(=O)(O)OC[C@H](N)C(=O)O [PS(42:06)]
[2]; [M+2Na-H]+
  collision cross section (N2): 297.48 Å²

## CCCCC/C=C\C/C=C\C/C=C\C/C=C\CCCCCC(=O)O[C@H](COC(=O)CCC/C=C\C/C=C\C/C=C\C/C=C\CCCCC)COP(=O)(O)OC[C@H](N)C(=O)O [PS(42:08)]
[2]; [M+2Na-H]+
  collision cross section (N2): 295.25 Å²
[2]; [M-H]-
  collision cross section (N2): 291.98 Å²

## CC/C=C\C/C=C\C/C=C\C/C=C\C/C=C\CCCC(=O)OC[C@H](COP(=O)(O)OC[C@H](N)C(=O)O)OC(=O)CCCCC/C=C\C/C=C\C/C=C\C/C=C\CCCCC [PS(42:09)]
[2]; [M+2Na-H]+
  collision cross section (N2): 292.63 Å²
[2]; [M+K]+
  collision cross section (N2): 294.57 Å²
[2]; [M-H]-
  collision cross section (N2): 290.63 Å²

## CCCCCCCCCCCCC=CC[C@@H](O)[C@H](COP(=O)([O-])OCC[N+](C)(C)C)NC(=O)CCCCCCCCCCCCCCCC [SM(35:01)]
[2]; [M+Na]+
  collision cross section (N2): 280.61 Å²

## CCCCCCCCCCCCC=CC[C@@H](O)[C@H](COP(=O)([O-])OCC[N+](C)(C)C)NC(=O)CCCCCCCCCCCCCCCCCC [SM(37:01)]
[2]; [M+H]+
  collision cross section (N2): 288.67 Å²
[2]; [M+Na]+
  collision cross section (N2): 285.35 Å²

## CCCCCCCCCCCCCCCCCCCC(=O)N[C@@H](COP(=O)([O-])OCC[N+](C)(C)C)[C@H](O)CCCCCCCCCCCCCCC [SM(38:00)]
[2]; [M+2Na-H]+
  collision cross section (N2): 294.68 Å²

## CCCCCCCCCCCCC=CC[C@@H](O)[C@H](COP(=O)([O-])OCC[N+](C)(C)C)NC(=O)CCCCCCCCCCCCCCCCCCC [SM(38:01)]
[2]; [M+Cl]-
  collision cross section (N2): 294.7 Å²
[2]; [M+HCOO]-
  collision cross section (N2): 296.3 Å²
[2]; [M+H]+
  collision cross section (N2): 292.26 Å²
[2]; [M+Na]+
  collision cross section (N2): 292.18 Å²

## CCCCCCCCCCCCC=CC[C@@H](O)[C@H](COP(=O)([O-])OCC[N+](C)(C)C)NC(=O)CCCCCCCCCCCCCCCCCCCC [SM(39:01)]
[2]; [M+H]+
  collision cross section (N2): 295.85 Å²
[2]; [M+Na]+
  collision cross section (N2): 294.58 Å²

## CCCCCCCCCCCCC=CC[C@@H](O)[C@H](COP(=O)([O-])OCC[N+](C)(C)C)NC(=O)CCCCCCCCCCCCCCCCCCCCCC [SM(41:01)]
[2]; [M+H]+
  collision cross section (N2): 301.14 Å²
[2]; [M+Na]+
  collision cross section (N2): 299.31 Å²

## CCCCCCCCCCCCC=CC[C@@H](O)[C@H](COP(=O)([O-])OCC[N+](C)(C)C)NC(=O)CCCCCCCCCCCCCCCCCCCCCCC [SM(42:01)]
[2]; [M+Cl]-
  collision cross section (N2): 305.77 Å²
[2]; [M+HCOO]-
  collision cross section (N2): 306.96 Å²
[2]; [M+H]+
  collision cross section (N2): 303.17 Å²
[2]; [M+Na]+
  collision cross section (N2): 302.6 Å²

## CCCCCCCCCCCCC=CC[C@@H](O)[C@H](COP(=O)([O-])OCC[N+](C)(C)C)NC(=O)CC=CCCCCCCCCCCCCCCCCCCCC [SM(42:02)]
[2]; [M+Cl]-
  collision cross section (N2): 304.71 Å²
[2]; [M+HCOO]-
  collision cross section (N2): 305.63 Å²
[2]; [M+H]+
  collision cross section (N2): 301.43 Å²
[2]; [M+Na-H2O]+
  collision cross section (N2): 301.19 Å²
[2]; [M+Na]+
  collision cross section (N2): 300.53 Å²

## CCCCCCCCCCCCC=CC[C@@H](O)[C@H](COP(=O)([O-])OCC[N+](C)(C)C)NC(=O)CC=CCC=CCC=CCCCCCCCCCCCCCC [SM(42:04)]
[2]; [M+H]+
  collision cross section (N2): 297.81 Å²

## CCCCCCCCCCCCC=CC[C@@H](O)[C@H](COP(=O)([O-])OCC[N+](C)(C)C)NC(=O)CCCCCCCCCCCCCCCCCCCCCCCCC [SM(44:01)]
[2]; [M+H]+
  collision cross section (N2): 309.76 Å²
[2]; [M+Na]+
  collision cross section (N2): 307.86 Å²

## CCCCCCCCCCCCC=CC[C@@H](O)[C@H](COP(=O)([O-])OCC[N+](C)(C)C)NC(=O)CC=CCC=CCCCCCCCCCCCCCCCCCCC [SM(44:03)]
[2]; [M+Na]+
  collision cross section (N2): 304.66 Å²
